US11440923B2, “Substituted macrocyclic indole derivatives” (Bayer Aktiengesellschaft, priority 2017, dated 2022)
Where a name gives a salt, the structure may show the parent alone. Read-outs that look alike come from different tables or passages of the source. Blank lines part the entries; values can stand above or below the compound they belong to.

Tests used:
Assay type in all cases: cell-based
SK-BR-3 cells = test: Antiproliferation assay SK-BR-3 (Assay 7); conditions: Homo sapiens, read-out: Antiproli SK-BR-3 IC50 median
Procedure: (§1) Assessment of the Anti-Proliferative Effect of Compounds in Different Cell Lines
(§2) The impact of compounds on the proliferation of different cell lines was assessed using the CellTiter-Glo® Luminescent Cell Viability reagent from Promega (G7573).
(§3) In parallel, cells were plated in a reference (day 0) plate for time zero determination. Cells were incubated in a humidified incubator at 37° C. overnight.
(§4) Rim wells were excluded. The cells were incubated for 72 h hours in a humidified incubator at 37° C. The day 0 plate was measured by adding 30 μL/well of CTG solution (CellTiter-Glo® Luminescent Cell Viability reagent, Promega G7573) to time zero wells in the reference plate followed by a 10 minutes incubation and luminescence reading at 0.1 ms. using the PHERAstar FS microplate reader (BMG Labtech).
(§5) After 72 h incubation, the treated plates were measured in the same way as the day 0 plate mentioned above. The Bella DRC Master Sheet was used to calculate IC50s, with CI=day 0 values and C0=DMSO control values.

A-431 cells = test: Antiproliferation assay A-431 (Assay 7); conditions: Homo sapiens, read-out: Antiproli A-431 IC50 median
Procedure: as §1, §2, §3, §4, §5

SK-MEL-2 cells = test: Antiproliferation assay SK-MEL-2 (Assay 7); conditions: Homo sapiens, read-out: Antiproli SK-MEL-2 IC50 median
How it was run: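 Growth inhibition is determined from ATP luminescence (CellTiter-Glo) following 72 h incubation with compound. Time-zero cells are measured the same way for baseline, and IC50s are referenced to DMSO controls.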

SNU-16 cells = test: Antiproliferation assay SNU-16 (Assay 7); conditions: Homo sapiens, read-out: Antiproli SNU-16 IC50 median
Procedure: as §1, §2, §3, §4, §5

SUDHL10 cells = test: Antiproliferation assay SUDHL10 (Assay 7); conditions: 72 h, CellTiter-Glo, read-out: Antiproli SUDHL10 IC50 (median)
Procedure: as §1, §2, §3, §4, §5

Compound: Cc1c2c(nn1C)C(CCN1CCOCC1)OCCCCn1c(C(=O)O)c(CCCOc3cccc4cc(F)ccc34)c3ccc(Cl)c-2c31 (racemic) [Example 16, (rac)-4-chloro-7-{3-[(6-fluoronaphthalen-1-yl)oxy]propyl}-2,3-dimethyl-15-[2-(morpholin-4-yl)ethyl]-2,10,11,12,13,15-hexahydropyrazolo[4′,3′:9,10][1,6]oxazacycloundecino[8,7,6-hi]indole-8-carboxylic Acid]
IC50 (SK-BR-3 cells; SK-BR-3, 72 h, CellTiter-Glo): 108 nM

Compound: CCc1c2c(nn1C)C(CCC1CCOCC1)OCCCCn1c(C(=O)O)c(CCCOc3cccc4cc(F)ccc34)c3ccc(Cl)c-2c31 (single isomer, unassigned; enantiomer 1) [Example 63, (+)-4-chloro-3-ethyl-7-{3-[(6-fluoronaphthalen-1-yl)oxy]propyl}-2-methyl-15-[2-(oxan-4-yl)ethyl]-2,10,11,12,13,15-hexahydropyrazolo[4′,3′:9,10][1,6]oxazacycloundecino[8,7,6-hi]indole-8-carboxylic Acid—N-ethylethanamine Salt (Enantiomer 1)]
IC50 (A-431 cells; A-431, 72 h): 272 nM
IC50 (SK-MEL-2 cells; SK-MEL-2, 72 h): 324 nM
IC50 (SNU-16 cells; SNU-16, 72 h): 276 nM

Compound: Cc1c2c(nn1C)C(CCN1CCOCC1)OCCCCn1c(C(=O)O)c(CCCOc3cccc4cc(F)ccc34)c3ccc(F)c-2c31 (single isomer, unassigned; enantiomer 1) [Example 20, 4-fluoro-7-{3-[(6-fluoronaphthalen-1-yl)oxy]propyl}-2,3-dimethyl-15-[2-(morpholin-4-yl)ethyl]-2,10,11,12,13,15-hexahydropyrazolo[4′,3′:9,10][1,6]oxazacycloundecino[8,7,6-hi]indole-8-carboxylic Acid—N-ethylethanamine (Enantiomer 1)]
IC50 (A-431 cells; A-431, 72 h): 462 nM
IC50 (SK-MEL-2 cells; SK-MEL-2, 72 h): 607 nM
IC50 (SNU-16 cells; SNU-16, 72 h): 397 nM
IC50 (SK-BR-3 cells; SK-BR-3, 72 h): 173 nM

Compound: Cc1c2c(nn1C)C(C)OCCCCn1c(C(=O)O)c(CCCOc3cccc4ccccc34)c3cccc-2c31 (racemic) [Example 1, (rac)-2,3,15-trimethyl-7-[3-(naphthalen-1-yloxy)propyl]-2,10,11,12,13,15-hexahydropyrazolo[4′,3′:9,10][1,6]oxazacycloundecino[8,7,6-hi]indole-8-carboxylic Acid (Mixture of Stereoisomers)]
IC50 (SUDHL10 cells; Homo sapiens, SU-DHL10): 7000 nM

Compound: Cc1c2c(nn1C)C(C)OCCCCn1c(C(=O)O)c(CCCOc3cccc4ccccc34)c3cccc-2c31 (single isomer, unassigned; stereoisomer 1) [Example 2, 2,3,15-trimethyl-7-[3-(naphthalen-1-yloxy)propyl]-2,10,11,12,13,15-hexahydropyrazolo[4′,3′:9,10][1,6]oxazacycloundecino[8,7,6-hi]indole-8-carboxylic Acid Trifluoroacetic Acid Salt (Stereoisomer 1)]
IC50 (SUDHL10 cells): 2900 nM

Compound: Cc1c2c(nn1C)C(C)OCCCCn1c(C(=O)O)c(CCCOc3cccc4ccccc34)c3cccc-2c31 (single isomer, unassigned; stereoisomer 2) [Example 3, 2,3,15-trimethyl-7-[3-(naphthalen-1-yloxy)propyl]-2,10,11,12,13,15-hexahydropyrazolo[4′,3′:9,10][1,6]oxazacycloundecino[8,7,6-hi]indole-8-carboxylic Acid Trifluoroacetic Acid Salt (Stereoisomer 2)]
IC50 (SUDHL10 cells): 7000 nM

Compound: CCc1c2c(nn1C)C(CCN1CCOCC1)OCCCCn1c(C(=O)O)c(CCCOc3cccc4ccccc34)c3ccc(F)c-2c31 (racemic) [Example 10, (rac)-3-ethyl-4-fluoro-2-methyl-15-[2-(morpholin-4-yl)ethyl]-7-[3-(naphthalen-1-yloxy)propyl]-2,10,11,12,13,15-hexahydropyrazolo[4′,3′:9,10][1,6]oxazacycloundecino[8,7,6-hi]indole-8-carboxylic Acid]
IC50 (SUDHL10 cells; Homo sapiens, SU-DHL10): 140 nM

Further lines, results first:

IC50 (A-431 cells; A-431, 72 h, CellTiter-Glo): 336 nM
IC50 (SK-MEL-2 cells; SK-MEL-2, 72 h, CellTiter-Glo): 505 nM
IC50 (SNU-16 cells; SNU-16, 72 h, CellTiter-Glo): 321 nM
Compound: CCc1c2c(nn1C)C(CCN1CCOCC1)OCCCCn1c(C(=O)O)c(CCCOc3cccc4cc(F)ccc34)c3ccc(F)c-2c31 (single isomer, unassigned; enantiomer 1) [Example 50, (+)-3-ethyl-4-fluoro-7-{3-[(6-fluoronaphthalen-1-yl)oxy]propyl}-2-methyl-15-[2-(morpholin-4-yl)ethyl]-2,10,11,12,13,15-hexahydropyrazolo[4′,3′:9,10][1,6]oxazacycloundecino[8,7,6-hi]indole-8-carboxylic Acid (Enantiomer 1)]

IC50 (SUDHL10 cells; Homo sapiens, SU-DHL10): 160 nM
Compound: Cc1c2c(nn1C)C(CCN1CCOCC1)OCCCCn1c(C(=O)O)c(CCCOc3cccc4ccccc34)c3ccc(F)c-2c31 (racemic) [Example 7, (rac)-4-fluoro-2,3-dimethyl-15-[2-(morpholin-4-yl)ethyl]-7-[3-(naphthalen-1-yloxy)propyl]-2,10,11,12,13,15-hexahydropyrazolo[4′,3′:9,10][1,6]oxazacycloundecino[8,7,6-hi]indole-8-carboxylic Acid]

IC50 (A-431 cells; A-431, 72 h, CellTiter-Glo): 126 nM
IC50 (SK-MEL-2 cells; SK-MEL-2, 72 h, CellTiter-Glo): 197 nM
IC50 (SNU-16 cells; SNU-16, 72 h, CellTiter-Glo): 130 nM
Compound: CCc1c2c(nn1C)C(CCN1CC(F)(F)C1)OCCCCn1c(C(=O)O)c(CCCOc3cccc4cc(F)ccc34)c3ccc(Cl)c-2c31 (single isomer, unassigned; (+)) [Example 78, (+)-4-chloro-15-[2-(3,3-difluoroazetidin-1-yl)ethyl]-3-ethyl-7-{3-[(6-fluoronaphthalen-1-yl)oxy]propyl}-2-methyl-2,10,11,12,13,15-hexahydropyrazolo[4′,3′:9,10][1,6]oxazacycloundecino[8,7,6-hi]indole-8-carboxylic Acid—N-ethylethanamine Salt]

IC50 (A-431 cells; A-431, 72 h, CellTiter-Glo): 135 nM
IC50 (SK-MEL-2 cells; SK-MEL-2, 72 h, CellTiter-Glo): 170 nM
IC50 (SNU-16 cells; SNU-16, 72 h, CellTiter-Glo): 152 nM
Compound: CCc1c2c(nn1C)C(CCC(C)(C)O)OCCCCn1c(C(=O)O)c(CCCOc3cccc4cc(F)ccc34)c3ccc(Cl)c-2c31 (single isomer, unassigned; enantiomer 1) [Example 75, (+)-4-chloro-3-ethyl-7-{3-[(6-fluoronaphthalen-1-yl)oxy]propyl}-15-(3-hydroxy-3-methylbutyl)-2-methyl-2,10,11,12,13,15-hexahydropyrazolo[4′,3′:9,10][1,6]oxazacycloundecino[8,7,6-hi]indole-8-carboxylic Acid—N-ethylethanamine Salt (Enantiomer 1)]
